Assay results taken from US12624023B2, “Sulfonylurea derivatives and uses thereof” (NodThera Limited, priority 2019, dated 2026).

How the values were obtained:
[1] = system: IL-1β release upon NLRP3 activation in human whole blood; assay: Whole blood (WB) assay (IL-1β release, LPS priming + ATP stimulation, HTRF); assay type: cell-based; conditions: heparin, diluted 9:5 with media, LPS 1 μg/ml 3 h, compound 30 min, ATP 5 mM 1 h, IL-1β by HTRF
In short: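 Heparinised human whole blood, diluted 9:5 in medium, was primed with LPS (1 μg/ml final) for 3 h. Compound was then added for 30 min, followed by ATP (5 mM final) for 1 h. Secreted IL-1β was measured in the media by HTRF (655/620 nm).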

[2] = system: IL-1β release upon NLRP3 activation in peripheral blood mononuclear cells (PBMC); assay: PBMC IC50 determination assay (IL-1β release, LPS priming + ATP stimulation, HTRF); assay type: cell-based; conditions: PBMC from buffy coats; LPS 1 μg/ml 3 h, compound 30 min, ATP 5 mM 1 h; IL-1β by HTRF
In short: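 Buffy-coat PBMC were primed with LPS (1 μg/ml) for 3 h, given compound for 30 min, then stimulated with 5 mM ATP for 1 h. IL-1β released into the medium was quantified by HTRF, reading 655 and 620 nm.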

IC50 [1] | Compound | IC50 [2]
< 1000 nM | CC(C)c1cc(NC(=O)NS(=O)(=O)N(c2cnn(C)c2)C2CCCN(C)C2)c(C(C)C)s1 (stereo not drawn) [Compound 11, 3-[2,5-Bis(propan-2-yl)thiophen-3-yl]-1-[(1-methyl-1H-pyrazol-4-yl)(1-methyl-piperidin-3-yl)sulfamoyl]urea] | < 100 nM
< 1000 nM | Cc1sc(C(F)(F)F)cc1NC(=O)NS(=O)(=O)N(c1cnn(C)c1)C1CCCN(C)C1 (stereo not drawn) [Compound 117, 1-[(1-Methyl-1H-pyrazol-4-yl)(1-methylpiperidin-3-yl)sulfamoyl]-3-[2-methyl-5-(trifluoromethyl)thiophen-3-yl]urea] | 100 to 500 nM
1000 to 3000 nM | CCc1csc(CC)c1NC(=O)NS(=O)(=O)N(c1cnn(C)c1)C1CCCN(C)C1 (stereo not drawn) [Compound 14, 3-(2,4-Diethylthiophen-3-yl)-1-[(1-methyl-1H-pyrazol-4-yl)(1-methylpiperidin-3-yl)sulfamoyl]urea] | < 100 nM
